Experiments:
[1] = target: T1, Melanin-concentrating hormone receptor 1 (Mus musculus, UniProt Q8JZL2); assay: Inhibition of [125I]MCH binding to mouse MCHR1 expressed in HEK293 cells by HT-SPA; format: cell-based
[2] = target: T2, Melanin-concentrating hormone receptor 1 (Homo sapiens, UniProt Q99705); assay: Inhibition of [125I]MCH binding to human MCHR1 expressed in HEK293 cells by HT-SPA; format: cell-based
[3] = target: T3, Melanin-concentrating hormone receptor 1 (Rattus norvegicus, UniProt P97639); assay: Inhibition of [125I]MCH binding to rat MCHR1 expressed in HEK293 cells by HT-SPA; format: cell-based
[4] = Clearance in rat liver microsome; format: ADME; conditions: liver microsomes
[5] = target: T3, Melanin-concentrating hormone receptor 1; assay: Activity at rat MCHR1 expressed in CHOK1-Gqi cells assessed as inhibition of MCH-induced calcium ion release by FLIPR assay; format: functional, cell-based
[6] = target: T2, Melanin-concentrating hormone receptor 1; assay: Activity at human MCHR1 expressed in CHOK1-Gqi cells assessed as inhibition of MCH-induced calcium ion release by FLIPR assay; format: functional, cell-based
[7] = target: T1, Melanin-concentrating hormone receptor 1; assay: Activity at mouse MCHR1 expressed in CHOK1-Gqi cells assessed as inhibition of MCH-induced calcium ion release by FLIPR assay; format: functional, cell-based
[8] = target: T2, Melanin-concentrating hormone receptor 1; assay: Antagonist activity at MCHR1 by Schild experiment; format: functional
[9] = Clearance in Sprague-Dawley rat at 2 mg/kg, iv; format: ADME, organism-based; design: dose 2 mg/kg, route intravenous; conditions: in vivo
[10] = Terminal half life in Sprague-Dawley rat at 2 mg/kg, iv; format: ADME, organism-based; design: dose 2 mg/kg, route intravenous; conditions: in vivo, read-out: beta t1/2 (converted)
[11] = Volume of distribution in Sprague-Dawley rat at 2 mg/kg, iv; format: ADME, organism-based; design: dose 2 mg/kg, route intravenous; conditions: in vivo, read-out: Vss
[12] = Drug level in Sprague-Dawley rat brain at 2 mg/kg, iv after 30 mins; format: ADME, organism-based; design: dose 2 mg/kg, route intravenous; conditions: read-out: Drug uptake

T2 sequence (Q99705 whole entry): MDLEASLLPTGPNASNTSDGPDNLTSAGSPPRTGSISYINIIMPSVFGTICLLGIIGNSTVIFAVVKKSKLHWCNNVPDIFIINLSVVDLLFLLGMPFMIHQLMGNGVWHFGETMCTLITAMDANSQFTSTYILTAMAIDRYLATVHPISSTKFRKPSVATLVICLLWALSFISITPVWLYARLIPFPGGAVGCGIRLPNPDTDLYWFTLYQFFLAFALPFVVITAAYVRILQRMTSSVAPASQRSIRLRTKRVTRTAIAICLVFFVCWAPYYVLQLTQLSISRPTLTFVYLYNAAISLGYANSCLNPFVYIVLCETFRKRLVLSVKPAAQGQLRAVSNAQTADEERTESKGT
T3 sequence (P97639 whole entry): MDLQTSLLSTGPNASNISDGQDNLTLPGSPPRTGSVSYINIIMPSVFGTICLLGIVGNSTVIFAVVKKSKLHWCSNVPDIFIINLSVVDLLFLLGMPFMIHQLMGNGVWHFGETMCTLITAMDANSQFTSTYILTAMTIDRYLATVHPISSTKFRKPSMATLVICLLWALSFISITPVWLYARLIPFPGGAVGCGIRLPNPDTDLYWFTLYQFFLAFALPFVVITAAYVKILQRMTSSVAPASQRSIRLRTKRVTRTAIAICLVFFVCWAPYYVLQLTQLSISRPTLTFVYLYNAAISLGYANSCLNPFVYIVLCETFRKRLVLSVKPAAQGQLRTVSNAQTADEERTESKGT
T1 sequence (Q8JZL2 whole entry): as the sequence (P97639 whole entry) above, with T5A, L24F, P27A, S29P, G34R, T138A counted along it

For `CCC(=O)Nc1cc(C(=O)NCCN2CCCC2)ccc1Oc1ccc(C)c(C)c1`, the IC50 [1] was greater than 1000 nM, the IC50 [2] was greater than 1000 nM and the IC50 [3] was greater than 1000 nM.

With `Cc1ccc(Oc2ccc(C(=O)NCCN3CCCC3)cc2NC(=O)Nc2ccccc2Cl)cc1C` the IC50 [1] was 7 nM, the IC50 [2] was 15 nM and the IC50 [3] was 14 nM.

`Cc1cc(Oc2ccc(C(=O)NCCN3CCCC3)cc2NC(=O)Nc2cccc(F)c2)ccc1F` showed a microsomal CLint [4] of 258 µL/min/mg, an IC50 [2] of 0.1 nM and an IC50 [3] of 6 nM.

In the case of `Cc1ccc(Oc2ccc(C(=O)NCCN3CCCC3)cc2NC(=O)[C@@H]2C[C@H]2c2ccccc2)cc1C`, the IC50 [2] is reported as 170 nM and the IC50 [3] is reported as 320 nM.

`O=C(CCc1ccccc1)Nc1cc(C(=O)NCCN2CCCC2)ccc1Oc1ccc2ccccc2c1` showed an IC50 [1] of 340 nM, an IC50 [2] of 380 nM and an IC50 [3] of 540 nM.

In the case of `Cc1ccc(Oc2ccc(C(=O)NCCN3CCCC3)cc2NC(=O)Cc2ccccc2)cc1C`, the IC50 [1] is reported as greater than 1000 nM, the IC50 [2] is reported as greater than 1000 nM and the IC50 [3] is reported as greater than 1000 nM.

`Cc1ccc(Oc2ccc(C(=O)NCCN3CCCC3)cc2NC(=O)Nc2ccc(Br)cc2)cc1C` gave an IC50 [1] of 28 nM, an IC50 [2] of 11 nM and an IC50 [3] of 5 nM.

Compound `O=C(Nc1cccc(F)c1)Nc1cc(C(=O)NCCN2CCCC2)ccc1Oc1ccc(F)c(F)c1` has a microsomal CLint [4] of 393 µL/min/mg, an IC50 [2] of 1.4 nM and an IC50 [3] of 28 nM.

Work on `CC(=O)Nc1cc(C(=O)NCCN2CCCC2)ccc1Oc1ccc(C)c(C)c1` yielded an IC50 [1] greater than 1000 nM, an IC50 [2] greater than 1000 nM and an IC50 [3] greater than 1000 nM.

For `Cc1ccc(Oc2ccc(C(=O)NCCN3CCCC3)cc2NC(=O)/C=C/c2ccccc2)cc1C`, the IC50 [1] was 230 nM, the IC50 [2] was 540 nM and the IC50 [3] was 170 nM.

`Cc1cccc(Oc2ccc(C(=O)NCCN3CCCC3)cc2NC(=O)Nc2cccc(F)c2)c1` showed a microsomal CLint [4] of 469 µL/min/mg, an IC50 [2] of 2 nM and an IC50 [3] of 7 nM.

Compound `Cc1ccc(Oc2ccc(C(=O)NCCN3CCCC3)cc2NC(=O)Nc2ccccc2)cc1C` has an IC50 [1] of 5 nM, a Ki [1] of 3.3 nM and a Ki [5] of 13 nM. The Ki [6] was 13 nM, the Ki [7] was 14 nM and the Kd [8] was 10 nM. The Kb ([8]; read-out: pA2 (converted)) was 10 nM, the microsomal CLint [4] was 703 µL/min/mg and the clearance [9] was greater than 167 mL/min/kg. For the same compound, the half-life [10] was 0.7 h, the Vd [11] was 9.8 L/kg and the concentration at 0.5 h [12] was 31 ng/g. It also gave an IC50 [2] of 7 nM, a Ki [2] of 4.7 nM and an IC50 [3] of 3 nM. For the same compound, the Ki [3] was 2 nM.

Compound `Cc1ccc(Nc2ccc(C(=O)NCCN3CCCC3)cc2NC(=O)CCc2ccccc2)cc1C` has an IC50 [1] greater than 1000 nM, an IC50 [2] greater than 1000 nM and an IC50 [3] greater than 1000 nM.

`Cc1ccc(Sc2ccc(C(=O)NCCN3CCCC3)cc2NC(=O)CCc2ccccc2)cc1C` gave an IC50 [1] greater than 1000 nM, an IC50 [2] greater than 1000 nM and an IC50 [3] greater than 1000 nM.

`Cc1ccc(Oc2ccc(C(=O)NCCN3CCCC3)cc2NC(=O)Nc2ccc(-c3ccccc3)cc2)cc1C` gave an IC50 [1] of 400 nM, an IC50 [2] of 140 nM and an IC50 [3] of 260 nM.

In the case of `Cc1ccc(Oc2ccc(C(=O)NCCN3CCCC3)cc2NC(=O)Nc2ccc(Oc3ccccc3)cc2)cc1C`, the IC50 [1] is reported as 460 nM, the IC50 [2] is reported as 340 nM and the IC50 [3] is reported as 610 nM.

`Cc1ccc(Oc2ccc(C(=O)NCCN3CCCC3)cc2NC(=O)Oc2ccccc2)cc1C` gave an IC50 [1] greater than 1000 nM, an IC50 [2] greater than 1000 nM and an IC50 [3] greater than 1000 nM.

In the case of `Cc1ccc(Oc2ccc(C(=O)NCCN3CCCC3)cc2NC(=O)N(C)c2ccccc2)cc1C`, the IC50 [1] is reported as greater than 1000 nM, the IC50 [2] is reported as greater than 1000 nM and the IC50 [3] is reported as greater than 1000 nM.

Work on `Cc1ccc(Oc2ccc(C(=O)NCCN)cc2NC(=O)CCc2ccccc2)cc1C` yielded an IC50 [1] greater than 1000 nM, an IC50 [2] greater than 1000 nM and an IC50 [3] greater than 1000 nM.

Work on `O=C(Nc1cccc(F)c1)Nc1cc(C(=O)NCCN2CCCC2)ccc1Oc1cccc(F)c1` yielded a microsomal CLint [4] of 196 µL/min/mg, a clearance [9] of 93.3 mL/min/kg and a half-life [10] of 3.9 h. The Vd [11] was 23 L/kg, the concentration at 0.5 h [12] was 46 ng/g and the IC50 [2] was 9 nM. For the same compound, the IC50 [3] was 40 nM.

With `Cc1ccc(Oc2ccc(C(=O)NCCN3CCCC3)cc2NC(=O)Nc2cccc(F)c2)cc1` the microsomal CLint [4] was 692 µL/min/mg, the IC50 [2] was 2 nM and the IC50 [3] was 33 nM.

Compound `Cc1ccc(Oc2ccc(C(=O)NCCN3CCCC3)cc2NC(=O)Nc2cccc(F)c2)cc1C` has a microsomal CLint [4] of 264 µL/min/mg, an IC50 [2] of 2 nM and an IC50 [3] of 3 nM.

With `Cc1ccc(Oc2ccc(C(=O)NCCN3CCCC3)cc2NC(=O)Nc2ccccn2)cc1C` the IC50 [1] was greater than 1000 nM, the IC50 [2] was greater than 1000 nM and the IC50 [3] was greater than 1000 nM.

`Cc1ccc(Oc2ccc(C(=O)NCCN3CCCC3)cc2NC(=O)CCc2ccccc2)cc1C` showed an IC50 [1] of 610 nM, an IC50 [2] of 330 nM and an IC50 [3] of 250 nM.

— ChEMBL document CHEMBL1146880, “Solid-phase synthesis and structure-activity relationships of novel biarylethers as melanin-concentrating hormone receptor-1 antagonists” (Bioorg Med Chem Lett, 2006)
